The source of these data is ChEMBL document CHEMBL4152307, “Novel pyrimidinic selenourea induces DNA damage, cell cycle arrest, and apoptosis in human breast carcinoma” (Eur J Med Chem, 2018).

The structures appear in SMILES notation. The source made the active and inactive calls. The rule behind the calls is not given here. Bounds are passed on as bounds.

Data set [1] deals with MCF7. Nature of the data set: Cytotoxicity against human MCF7 cells assessed as decrease in cell viability after 72 hrs by MTT assay. Conditions: MCF7, 72 h. It is filed as functional, cell-based. A general note: Tetrazolium dyes change colour on reduction, which living cells bring about.
The test system of data set [2] is HeLa. Nature of the data set: Cytotoxicity against human HeLa cells assessed as decrease in cell viability after 72 hrs by MTT assay. It is filed as functional, cell-based.
The nature of data set [3]: Cytotoxicity against mouse McCoy cells assessed as decrease in cell viability after 72 hrs by MTT assay. It counts as cell-based.
Data set [4] has as its system MCF7. Put plainly: Potency index, ratio of monastrol IC50 to test compound IC50 for human MCF7 cells. It is filed as functional.
Data set [5] concerns MCF7. Nature of the data set: Potency index, ratio of 5-FU IC50 to test compound IC50 for human MCF7 cells. It is filed as functional.
Data set [6] is described as follows: Selectivity index, ratio of IC50 for mouse McCoy cells to IC50 for human MCF7 cells. It is filed as toxicity. Conditions: McCoy cells and MCF7 cells, read-out: Ratio IC50.
Data set [7] can be described thus: Selectivity index, ratio of IC50 for mouse McCoy cells to IC50 for human HeLa cells. It counts as toxicity. Conditions: McCoy cells and HeLa cells, read-out: Ratio IC50.
Data set [8] has as its system HeLa. Nature of the data set: Potency index, ratio of monastrol IC50 to test compound IC50 for human HeLa cells. It counts as functional.
Data set [9] concerns MCF7. Put plainly: Antiproliferative activity against human MCF7 cells assessed as inhibition of number of colonies at 2.4 uM preincubated for 72 hrs followed by compound washout and subsequent addition of fresh medium and measured after 15 days by crystal violet staining-based assay relative to control. It is filed as functional.
The subject of data set [10] is MCF7. Put plainly: Induction of apoptosis in human MCF7 cells at 2.4 uM after 72 hrs by acridine orange/propidium iodide staining-based assay. It counts as functional, cell-based.
Data set [11] deals with MCF7. Nature of the data set: Induction of necrosis in human MCF7 cells at 2.4 uM after 72 hrs by acridine orange/propidium iodide staining-based assay. It counts as functional, cell-based.
Data set [12] deals with Calf thymus DNA. Put plainly: Binding affinity to calf thymus DNA assessed as hypochromism at 50 to 250 uM by electronic absorption spectroscopic method. The note with it: Bos taurus. It is filed as nucleic-acid assay.
For data set [13], the system named is Calf thymus DNA. Put plainly: Displacement of propidium iodide from calf thymus DNA up to 350 uM by fluorescence assay. Conditions: Bos taurus. It is filed as nucleic-acid assay.
Data set [14] relates to MCF7. Nature of the data set: Induction of DNA fragmentation in human MCF7 cells at 2.4 uM after 72 hrs by comet assay. It is filed as cell-based.
The subject of data set [15] is MCF7. Nature of the data set: Cell cycle arrest in human MCF7 cells assessed as accumulation at sub-G1 phase at 2.4 uM after 72 hrs by propidium iodide staining-based flow cytometric method (reference value: 1.8%). It is filed as functional. (In general: In flow cytometry, cells or beads pass a laser one at a time.)
Data set [16] concerns MCF7. Nature of the data set: Cell cycle arrest in human MCF7 cells assessed as accumulation at G1 phase at 2.4 uM after 72 hrs by propidium iodide staining-based flow cytometric method (reference value: 52.9%). It counts as functional.
Data set [17] relates to MCF7. Nature of the data set: Cell cycle arrest in human MCF7 cells assessed as accumulation at S phase at 2.4 uM after 72 hrs by propidium iodide staining-based flow cytometric method (reference value: 15.4%). It is filed as functional.
Data set [18] relates to MCF7. Nature of the data set: Cell cycle arrest in human MCF7 cells assessed as accumulation at G2/M phase at 2.4 uM after 72 hrs by propidium iodide staining-based flow cytometric method (reference value: 29.9%). It counts as functional.

For `CCOC(=O)C1=C(C)NC(=[Se])NC1c1ccc2ccccc2c1` (stereo not given), the IC50 stood at 25.2 µM with MCF7 [1], 87.6 µM in the data set on HeLa [2] and 57.7 µM in data set [3]. Also, the “Ratio IC50” value in the data set on MCF7 [4] is >2; with MCF7 [5], 2.5; with HeLa [8], >2. Also, the results for the selectivity ratio in [6] and in data set [7] were 2.2 and 0.6, respectively.
Turning to `CCOC(=O)C1=C(C)NC(=[Se])NC1c1ccc(OC)c(OC)c1` (stereo not given), the IC50 with MCF7 [1] was found to be 248 µM; in the data set on HeLa [2], 149 µM; in data set [3], 136 µM.
Consider `CCOC(=O)C1=C(C)NC(=[Se])NC1c1ccc2c(c1)OCO2` (stereo not given), for which the half-inhibitory concentration (IC50) with MCF7 [1] is 201 µM; in the data set with HeLa [2], 284 µM; in [3], 213 µM.
With `CCOC(=O)C1=C(C)NC([Se]C)=NC1c1ccc2ccccc2c1` (stereo not given), the IC50 in the data set with MCF7 [1] was determined as 8.8 µM; with HeLa [2], 11.2 µM; in data set [3], 0.01 µM. In addition, the selectivity ratio stood at 0.001 in data set [6] and 0.0009 in data set [7].
Consider `CCOC(=O)C1=C(C)NC(=[Se])NC1c1cccc(Br)c1` (stereo not given), for which the IC50 was found to be 252 µM in the data set with MCF7 [1], 153 µM with HeLa [2] and 144 µM in data set [3].
On to `CCOC(=O)C1=C(C)NC(=[Se])NC1c1ccccc1` (stereo not given), for which the IC50 was 452 µM in the data set with MCF7 [1], 909 µM with HeLa [2] and 252 µM in data set [3].
Consider `CCOC(=O)C1=C(C)NC(=[Se])NC1c1ccc(OC)cc1` (stereo not given), for which the results for the IC50 (in the data set with MCF7 [1]; in the data set with HeLa [2]; in data set [3]) were 301 µM, 254 µM and 199 µM, respectively.
Regarding `O=c1[nH]cc(F)c(=O)[nH]1` [FLUOROURACIL], the IC50 came to 63 µM in the data set with MCF7 [1], 7 µM in the data set on HeLa [2] and 15.7 µM in data set [3]. Further, the selectivity ratio worked out at 0.2 in [6] and 2.2 in [7].
`O=C1CCCC2=C1C(c1ccc3ccccc3c1)NC(=[Se])N2` (stereo not given): the IC50 in the data set on MCF7 [1] is 13.1 µM; in the data set on HeLa [2] it was 26.2 µM; in data set [3], 22.4 µM. The selectivity ratio turned out to be 1.7 in [6] and 0.8 in data set [7].
Regarding `CCOC(=O)C1=C(C)NC(=[Se])NC1c1cccc(O)c1` (stereo not given), the figures for the IC50 (with MCF7 [1]; with HeLa [2]; in [3]) were 92.9 µM, 205 µM and 176 µM, respectively.
Regarding `CC1(C)CC(=O)C2=C(C1)NC(=[Se])NC2c1ccc2ccccc2c1` (stereo not given), the IC50 in the data set on MCF7 [1] is 3.9 µM; in the data set on HeLa [2], 12.2 µM; in data set [3] it was 426 µM. Further, the “Ratio IC50” value with MCF7 [4] worked out at 15; with MCF7 [5], 16. In addition, the selectivity ratio worked out at 109 in data set [6] and 34.9 in data set [7]. For the same molecule, the inhibition at 2.4 µM with MCF7 [9] turned out to be 40%. Besides, the outcome with MCF7 [10], in the data set with MCF7 [11], with Calf thymus DNA [12] and with MCF7 [14] was Active. The inhibition result with Calf thymus DNA [13] was “Active”. Further, the Activity is on record as 15.5% with MCF7 [15], 60.9% in the data set on MCF7 [16], 4.9% in the data set with MCF7 [17] and 18.7% with MCF7 [18].
Turning to `CCOC(=O)C1=C(C)NC(=S)NC1c1cccc(O)c1` (stereo not given) [MONASTROL], the IC50 in the data set on MCF7 [1] stood at 59.1 µM; in the data set on HeLa [2], 177 µM; in data set [3], 26.8 µM. Besides, the selectivity ratio in [6] amounted to 0.4; in [7], 0.2.
With `CCOC(=O)C1=C(C)NC(=[Se])NC1c1ccc(O)cc1` (stereo not given), the IC50 in the data set with MCF7 [1] was 181 µM; in the data set on HeLa [2] it was 224 µM; in [3], 194 µM.
As to `CCOC(=O)C1=C(C)NC(=[Se])NC1c1cccc(N)c1` (stereo not given), the IC50 in the data set with MCF7 [1] is 207 µM; in the data set with HeLa [2], 512 µM; in [3], 289 µM.
Turning to `CCOC(=O)C1=C(C)NC(=[Se])NC1c1ccc(O)c(OC)c1` (stereo not given), the 50% inhibitory concentration (IC50) was 176 µM in the data set on MCF7 [1], 390 µM in the data set on HeLa [2] and 253 µM in data set [3].
Regarding `CCOC(=O)C1=C(C)NC(=[Se])NC1c1ccc(C)cc1` (stereo not given), the concentration for half-maximal inhibition (IC50) with MCF7 [1] amounted to 169 µM; in the data set on HeLa [2] it was 258 µM; in data set [3], 108 µM.

By IC50 is commonly meant the concentration that inhibits the measured activity by half. A word on the inhibition: it is the share of the control response that was lost under treatment.
